From the NIST ThermoML archive (doi:10.1016/j.jct.2016.02.015)

Experiment: excess molar enthalpy (molar enthalpy of mixing); xn = mol fraction of the nth substance listed
Details: 100 kPa, Liquid, Calvet calorimetry

[Li] [lithium] + [Ga]
Details | excess molar enthalpy [kJ/mol]
873 K, x1 = 0.703 | -19.4
873 K, x1 = 0.7734 | -16.2
873 K, x1 = 0.8058 | -14.4
873 K, x1 = 0.8391 | -12.2
873 K, x1 = 0.865 | -10.5
873 K, x1 = 0.894 | -8.5
873 K, x1 = 0.9218 | -6.4
873 K, x1 = 0.9468 | -4.1
873 K, x1 = 0.9801 | -1.4
992 K, x1 = 0.0908 | -5.1
992 K, x1 = 0.1797 | -10.2
992 K, x1 = 0.2283 | -12.8
992 K, x1 = 0.3064 | -16.1
992 K, x1 = 0.3748 | -18.7
1039 K, x1 = 0.4284 | -19.8
1039 K, x1 = 0.5421 | -21.2
1039 K, x1 = 0.652 | -20
1039 K, x1 = 0.7322 | -17
1039 K, x1 = 0.7709 | -14.8
1039 K, x1 = 0.7991 | -12.8
1039 K, x1 = 0.8282 | -11.2
